The text below walks through data of patent US7674813B2, “Heterocyclic sulfonamide inhibitors of beta amyloid production containing an azole” (Wyeth, priority 2004, dated 2010).

The structures appear in SMILES notation.

What all share (format): cell-based
Experiment [1] relates to amyloid precursor protein (APP) proteolysis. The experiment is described as follows: Repressor Release Assay (RRA). Further details: key to RRA data (footnote symbols): **: Inactive due to toxicity; however, this compound, at 3-4 μM, reduces Aβ levels by 50% in CHO cells transfected with human APP695 as measured by ELISA without exhibiting toxicity.; ***: Inactive; however, this compound, at 1-4 μM, reduces Aβ levels by 50% in CHO cells transfected with human APP695 as measured by ELISA without exhibiting toxicity. The settings on record: transfected CHO-K1 cells; for fold induction at 20 µg/mL: Cricetulus griseus, CHO-K1, all compounds tested at 20 μg/mL, luciferase activity over diluent control, read-out: RRA data (Fold increase of APPI). As for the experimental part:
The beta amyloid inhibitory activity of many of the compounds of the present invention has been determined using the Repressor Release Assay (RRA). See, Table 3 below. A compound is considered active in RRA if it leads to at least a 1.5 fold increase in luciferase activity at 20 μg/mL and is non-toxic.
The compound is considered active in RRA if it leads to at least a 1.5 fold increase in APPI as measured by an increase in luciferase activity at 20 μg/mL and is non-toxic. Shuey, D. J., Sheiffele, P., Jones, D., Cockett, M. I., and Quinet, E. M. (1999) Repressor release: a useful tool for monitoring amyloid precursor protein (APP) proteolysis in mammalian cells. Society for Neuroscience Abstracts, Vol. 25, 29th Annual Meeting of Society for Neuroscience, Miami Beach, Fla., Oct. 23-28, 1999.
CHO—K1 cells are cultured in whole DMEM media (DMEM—High Glucose with 10% fetal bovine serum, 1% Non-essential Amino Acids, and 1% Penicillin-Streptomycin) at 37° C. with 5% CO2. Two million cells are plated into 10-cm dishes 24 hrs prior to transfection.
Transient transfections are completed as recommended by Gibco BRL using their Lipofectamine Plus system. First, 6 μg of pRSVO-luc and 6 μg of APP-lacI construct DNA are added to 460 μL Opti-Mem transfection media and incubated with 30 μL Plus reagent for 15 minutes. Then, a lipid mixture of 40 μL Lipofectamine reagent and 460 μL Opti-Mem transfection media is incubated with the DNA-Plus reagent mixture for 15 minutes. During the DNA-lipid incubation, the CHO—K1 cells are washed once and covered in 5.0 mL DMEM media without Penicillin-Streptomycin. The DNA-lipid preparation is then layered onto these cells and incubated at 37° C. overnight.
One and one half million transfected cells per well (100 μL total volume) are plated into sterile, opaque Packard 96-well Cultur-Plates in clear DMEM whole media (DMEM—without phenol red) and incubated at 37° C. with 5% CO2 for 3-5 hours.
Compounds are diluted using two different protocols; one protocol is used for compounds supplied neat (weighed powder in vial) and the other protocol is used for compounds supplied in solution (20 mM in DMSO in 96-well plates). For both protocols, 25 mM Hepes and 25 mM Hepes/1% DMSO are prepared fresh to be used as diluent. The Hepes/DMSO is used as the diluent control on all experimental plates.
The following Table 1 depicts the steps for compound dilution (the last step is the addition of compound to cells/media in tissue culture plate):
Because some compounds arrive in 96-well format at 20 mM, the following Table 2 represents the protocol for their dilution (an average molecular weight of these compounds was used to calculate these dilutions and as above, the last step is the addition of compound to cells/media in tissue culture plate):
Once compounds are diluted, they are applied in duplicate on cells in tissue culture plates (prepared above). Cells are incubated with compound at 37° C. with 5% CO2 for an additional 36-48 hours.
Luciferase assays (LucLite reagent, Packard) are performed and are read on a Packard TopCount instrument. Media is removed from each 96-well plate and replaced with 100 μL PBS per well (with Mg^2+ and Ca^2+). An equal volume (100 μL) of the LucLite lysis/substrate buffer is added to each well and the plates are sealed and mixed in the dark on a rotary shaker for 15-30 minutes at room temperature. Luciferase readings are then taken on the TopCount instrument. Measurements are expressed as relative light units (RLU) and are calculated and analyzed in MS Excel as follows:
Fold Increase: amount of luciferase activity (measured in relative light units) over diluent control.
SEM: standard error of the mean for fold increase.
Activity: A compound is considered active if it results in at least a 1.5 fold increase in luciferase activity at 20 μg/mL.
Toxicity: determined by loss of signal (<0.75 fold increase).

A further experiment has as its system beta amyloid 40. Put plainly: Aβ40/42 ELISA Assay (Aβ40). The settings on record: Cricetulus griseus; CHO cells carrying the APP-REP-NL plasmid, 22 hours, sandwich ELISA. As to the method:
(§1) Compounds are diluted from DMSO stocks to 2 μM and below in a cell culture medium. Compounds are then applied to CHO cells carrying the APP-REP-NL plasmid [Sudhir et. al, J. Biolog. Chem. 267:25602-25608 (1992)] for a period of 22 hours. After the conditioning period, medium is collected, diluted in assay buffer containing protein, and samples, controls, and synthetic peptide standards are incubated on a prepared ELISA plate. Using a sandwich ELISA with antibodies specifically directed against the carboxyl terminus of beta amyloid 40 or 42 (analogous to the method reported by Haugabook et al., J. Neurosci. Methods 108:171-179 (2001) but using goat anti-mouse IgG1 (source: Southern Biotech) as the anchor, 6E10 as the capture antibody (Source: SENETEK), rabbit antiAβ40 and antiAβ42 (source: QCB) and APL-donkey anti-rabbit IgG (H+L, source: Southern Biotech) as the detection antibody), the effect of the compound treatment on the cellular production of extracellular beta amyloid is quantified. Cells treated with compound are subsequently incubated in cell culture medium containing MTS-formazan. After a short incubation period, MTS/medium containing plates are read in a spectrophotometer to determine the extent to which compound toxicity affected the cell's metabolism and ability to synthesize beta amyloid.
(§2) A. Test Samples: compound samples are supplied as 20 mM stock solutions in a 100% DMSO solution.
(§3) B. APP-REP-NL cells: Qualified cell lines are carried from week to week using 1:100 dilutions and are cultured in DMEM supplemented with 1× antibiotic/antimycotic, 200 ug/ml of G418 antibiotic, and 10% certified fetal calf serum. Cells are also banked in liquid nitrogen. Periodically, beta amyloid production is assessed, and cells are either kept in culture or replaced with progenitors at full expression.
(§4) C. Antibodies: From certified lots that have already been qualified in this assay. Antibodies are stored in small frozen aliquots at −80° C. that are thawed and used.
(§5) A compound is considered active if it has an EC50 for Aβ40 reduction of <100 μM and no toxicity at doses in the vicinity of the EC50.
A general note: In an ELISA, binding on a coated surface is turned into a signal by an enzyme label.

In a further experiment the test system is beta amyloid 42. Put plainly: Aβ40/42 ELISA Assay (Aβ42). The note with it: CHO cells carrying the APP-REP-NL plasmid, 22 hours, sandwich ELISA; for EC50: Cricetulus griseus. As for the experimental part:
as §1, §2, §3, §4, §5

By EC50 is commonly meant the concentration at which the effect is half-maximal. As to `CCCCn1nccc1C(NS(=O)(=O)c1ccc(Cl)s1)C(CC)CC` (centres unmarked) [Example 7, N-[1-(1-Butyl-1H-pyrazol-5-yl)-2-ethylbutyl]-5-chlorothiophene-2-sulfonamide], in experiment [1], the fold induction at 20 µg/mL amounted to 5.4. For the same compound, the half-maximal effective concentration (EC50) in the experiment with beta amyloid 40 amounted to 2.4 µM; in the experiment on beta amyloid 42, 2.7 µM.
On the same counts, the results for `Cc1ccc(-n2nccc2C(NS(=O)(=O)c2ccc(Cl)s2)C(C)C)cc1` (centres unmarked) [Example 14, 5-Chloro-N-{2-methyl-1-[1-(4-methylphenyl)-1H-pyrazol-5-yl]propyl}thiophene-2-sulfonamide] are 17.7, 1.2 µM and 1.2 µM.
Turning to `CCC(CC)C(NS(=O)(=O)c1ccc(Cl)s1)c1nccn1Cc1ccccc1` (centres unmarked) [Example 28, N-[1-(1-Benzyl-1H-imidazol-2-yl)-2-ethylbutyl]-5-chlorothiophene-2-sulfonamide], the fold induction at 20 µg/mL in experiment [1] worked out at 1.5. This compound also showed a half-maximal effective concentration (EC50) in the experiment on beta amyloid 40 of 19.4 µM.
Turning to `O=S(=O)(NC(Cc1ccccc1)c1ccnn1-c1ccc(F)cc1)c1ccc(Cl)s1` (centres unmarked) [Example 35, 5-Chloro-N-{1-[1-(4-fluorophenyl)-1H-pyrazol-5-yl]-2-phenylethyl}thiophene-2-sulfonamide], the EC50 amounted to 12.8 µM with beta amyloid 40 and 67.2 µM in the experiment with beta amyloid 42.
Turning to `CC(C)C(NS(=O)(=O)c1ccc(Cl)s1)c1ccnn1-c1ccc(F)cc1` (racemic) [Example 15, 5-Chloro-N-{1-[1-(4-fluorophenyl)-1H-pyrazol-5-yl]-2-methylpropyl}thiophene-2-sulfonamide], in experiment [1], the fold induction at 20 µg/mL is 2.8. Further, the EC50 stood at 4 µM with beta amyloid 40 and 5.1 µM in the experiment on beta amyloid 42.
For `COc1ccc(Cn2nccc2C(NS(=O)(=O)c2ccc(Cl)s2)C(C)C)cc1` (centres unmarked) [Example 5, 5-Chloro-N-{1-[1-(4-methoxybenzyl)-1H-pyrazol-5-yl]-2-methylpropyl}thiophene-2-sulfonamide], the fold induction at 20 µg/mL in experiment [1] was 3.5. The figures for the 50% effective concentration (EC50) with beta amyloid 40 and with beta amyloid 42 were 1.1 µM and 0.9 µM, respectively.
As to `CCC(CC)C(NS(=O)(=O)c1ccc(Cl)s1)c1ccnn1Cc1ccc(OC)cc1` (centres unmarked) [Example 1, 5-Chloro-N-{2-ethyl-1-[1-(4-methoxybenzyl)-1H-pyrazol-5-yl]butyl}thiophene-2-sulfonamide], the fold induction at 20 µg/mL in experiment [1] was 7.8. Moreover, the half-maximal effective concentration (EC50) in the experiment with beta amyloid 40 and with beta amyloid 42 was 1 µM throughout.
For the compound `CCCC(NS(=O)(=O)c1ccc(Cl)s1)c1ccnn1Cc1ccc(OC)cc1` (centres unmarked) [Example 6, 5-Chloro-N-{1-[1-(4-methoxybenzyl)-1H-pyrazol-5-yl]butyl}thiophene-2-sulfonamide], the fold induction at 20 µg/mL in experiment [1] came out at 4.7. Besides, the EC50 with beta amyloid 40 was found to be 1.5 µM; in the experiment with beta amyloid 42 it was 1.4 µM.
In the case of `CCC(CC)C(NS(=O)(=O)c1ccc(Cl)s1)c1ccnn1OCc1ccccc1` (centres unmarked) [Example 33, N-{1-[1-(Benzyloxy)-1H-pyrazol-5-yl]-2-ethylbutyl}-5-chlorothiophene-2-sulfonamide], the “RRA data (footnote symbols)” value in experiment [1] (tested at 20 μg/mL) is “**”. Also, the 50% effective concentration (EC50) in the experiment with beta amyloid 40 is 2.6 µM; with beta amyloid 42, 4.3 µM.
For the compound `CCC(CC)C(NS(=O)(=O)c1ccc(Cl)s1)c1ncnn1Cc1ccc(OC(F)(F)F)cc1` (centres unmarked) [Example 20, 5-Chloro-N-(2-ethyl-1-{1-[4-(trifluoromethoxy)benzyl]-1H-1,2,4-triazol-5-yl}butyl)thiophene-2-sulfonamide], the fold induction at 20 µg/mL in experiment [1] was 9.8. For the same compound, the 50% effective concentration (EC50) in the experiment on beta amyloid 40 was 2.4 µM; in the experiment on beta amyloid 42, 4.3 µM.
`CCC(CC)C(NS(=O)(=O)c1ccc(Cl)s1)c1nccn1Cc1ccc(OC)cc1` (centres unmarked) [Example 29, 5-Chloro-N-{2-ethyl-1-[1-(4-methoxybenzyl)-1H-imidazol-2-yl]butyl}thiophene-2-sulfonamide]: the fold induction at 20 µg/mL in experiment [1] worked out at 1.9. The values for the EC50 with beta amyloid 40 and in the experiment on beta amyloid 42 were 50.7 µM and 52.5 µM, respectively.
As to `CCC(CC)C(NS(=O)(=O)c1ccc(Br)cc1)c1ccnn1Cc1ccc(OC)cc1` (centres unmarked) [Example 3, 4-Bromo-N-{2-ethyl-1-[1-(4-methoxybenzyl)-1H-pyrazol-5-yl]butyl}benzenesulfonamide], the fold induction at 20 µg/mL in experiment [1] worked out at 5.9. For the same compound, the EC50 with beta amyloid 40 came to 6.8 µM; in the experiment on beta amyloid 42, 10 µM.
Regarding `CCC(CC)C(NS(=O)(=O)c1ccc(Cl)s1)c1ncnn1Cc1ccc(F)cc1` (centres unmarked) [Example 19, 5-Chloro-N-{2-ethyl-1-[1-(4-fluorobenzyl)-1H-1,2,4-triazol-5-yl]butyl}thiophene-2-sulfonamide], in experiment [1], the fold induction at 20 µg/mL worked out at 3.9.
The compound `CC(C)[C@@H](NS(=O)(=O)c1ccc(Cl)s1)c1ccnn1-c1ccc(F)cc1` (stereo in doubt) [Example 41, 5-Chloro-N-{(1R)-1-[1-(4-fluorophenyl)-1H-pyrazol-5-yl]-2-methylpropyl}thiophene-2-sulfonamide] gave an EC50 in the experiment with beta amyloid 40 of 21.9 µM. Also, in the experiment with beta amyloid 42, the “Effect on Aβ42 production” value is recorded as “increase”.
`CC(C)[C@H](NS(=O)(=O)c1ccc(Cl)s1)c1ccnn1-c1ccc(F)cc1` (stereo in doubt) [Example 42, 5-Chloro-N-{(1S)-1-[1-(4-fluorophenyl)-1H-pyrazol-5-yl]-2-methylpropyl}thiophene-2-sulfonamide]: the EC50 in the experiment with beta amyloid 40 and in the experiment with beta amyloid 42 was 1 µM each time.
Consider `CCC(CC)C(NS(=O)(=O)c1ccc(Cl)s1)c1ccnn1-c1ccccc1` (centres unmarked) [Example 17, 5-Chloro-N-[2-ethyl-1-(1-phenyl-1H-pyrazol-5-yl)butyl]thiophene-2-sulfonamide], for which the figures for the EC50 in the experiment with beta amyloid 40 and in the experiment with beta amyloid 42 were 4.2 µM and 10 µM, respectively.
